Results reported in patent publication US20260027073A1, “USE OF SMALL-MOLECULE COMPOUND HAVING NAPHTHYLAMINE STRUCTURE” (HANGZHOU PHECDAMED CO., LTD., priority 2023, published 2026).

Key:
[1] = test system: LPS-induced acute lung injury mice; experiment: LPS-induced acute lung injury; type: in vivo, C57BL/6J mice
Protocol: Male mice C57BL/6J aged 6-8 weeks and weighing 18-22 g were selected for the study. After fixing the mice, 50 μl of PBS was injected into the airways of the mice under direct laryngoscopic vision to form a control group, and 5 mg/kg of LPS (E.coil) was dissolved in 50 μl of PBS and dripped to form a model group. The experiments were divided into […], each having 6 mice, namely, NS group (control group, airway drip of 50 μl PBS), LPS group (model control group, airway drip of 50 μl LPS), LPS+10 mg/kg group (airway drip of 50 μl LPS and given 10 mg/kg TJ01-013 treatment), LPS+20 mg/kg group (airway drip of 50 μl LPS and given 20 mg/kg TJ01-013 treatment), LPS+30 mg/kg group (airway drip of 50 μl LPS and given 30 mg/kg TJ01-013 treatment), LPS+Sivelestat group (Positive control group, airway drip of 50 μl LPS and given 5 mg/kg Sivelestat treatment). All groups were administered […] by intraperitoneal injection in a volume of 200 μl 1 h and 7 h after airway drip, and the mice were euthanized 24 h later, bronchoalveolar lavage fluid (BALF) was taken, and the levels of inflammatory factors in the bronchoalveolar lavage fluid were detected and the changes in the transcriptional levels of tissue-associated inflammatory factors were observed. • (2) taking and observing of Bronchoalveolar lavage fluid (BALF)
Use chloral hydrate intraperitoneal injection to make mice die of rapid overdose anesthesia, place mice in supine position on the dissection table, fix the limbs, disinfect the skin of the neck of the mice with 75% ethanol, incise the skin along the midline of the neck, bluntly separate the subcutaneous connective tissues and muscles with hemostatic forceps, expose the trachea, separate connective tissues on both sides of the trachea and between the trachea and the esophagus, and free the trachea. Two surgical sutures about 20 cm long were threaded between the trachea and esophagus. A 24G intravenous cannula needle was inserted at a 30-degree angle from the connective tissue membrane between the thyroid cartilage and the cricoid cartilage, and the intravenous cannula needle was delivered in the direction of the tracheal eminence. A surgical suture placed between the tracheo-esophageal was ligated at the entry of the cannula into the trachea and at the distal end of the cannula, respectively, and tied as tightly as possible to secure the cannula and trachea. 0.8 ml of PBS was aspirated with a 1 ml syringe, and the syringe was connected to the inlet end of the intravenous cannula needle, and PBS was slowly injected into the trachea, stayed for 30 seconds and then was withdrawn back, and a milky white frothy liquid withdrawn back was visible, and the lavage was repeated three times, and the liquid was centrifuged at 1500 rpm/min for 10 min, and the supernatant was used for cytokine assay, and the cell precipitates were coated after resuspending with PBS for Giemsa staining and sorting and counting.
The levels of inflammatory factors (inflammatory factors including IL-6, CXCL1, CXCL2, etc.) in BALF supernatant were detected according to the instructions of the ELISA test kit.
The obtained cDNA was amplified on a 96-well PCR plate using a LightCycler 480 system, and the gene level was determined by using glyceraldehyde 3-phosphate dehydrogenase (GAPDH) as an internal standard.

[2] = test system: myocardial infarction rats; experiment: Myocardial infarction by coronary artery ligation; type: in vivo, SD rats; conditions: TJ01-013 30 mg/kg, Entresto 10 mg/kg, oral, 4 weeks
Protocol: 180 g-200 g SD rats were anesthetized by chloral hydrate after fasting for 12 h, the hair from the mandible to the upper part of the abdominal cavity and the ventral surfaces of the limbs was removed cleanly, and they were fixed on the surgical table, firstly, a small incision of about 1.5 cm was made in the neck with a scalpel, and then the subcutaneous muscle layer was bluntly separated with surgical scissors to expose the trachea, and then the tracheal tube was intubated and connected to the animal respiratory machine. After sterilizing with iodophor, the skin was cut on the left side of the chest between the 3rd and 4th ribs, and the muscles were bluntly separated to expose the ribs. The 3rd rib was cut with surgical scissors, hemostatic forceps were used to clamp and break the cut rib, and an eyelid opener was placed to peel the pericardium. After the pericardium was cut, a cotton swab moistened with saline was used to gently pivot the heart to locate the left auricle and coronary arteries. A threaded suture needle was clamped with a microscopic needle holder, and passed through the myocardium from right to left at 2-3 mm below the left auricle to ligate the coronary artery. At the end of the ligation, the organs in the thoracic cavity were recovered with saline-soaked cotton swabs, and figure-of-eight sutures were applied to the third and fourth ribs. After the rib layer suture was completed, subcutaneous muscle layering suture was performed, and the skin was finally sutured. After dialing out the tracheal tube, the rats were closely observed whether they had spontaneous respiration or not, and if there was no respiration they should be immediately pressed on the chest cavity for cardiopulmonary resuscitation. The electrocardiograph was connected to measure the postoperative electrocardiogram. […] The drug was administered orally by gavage in a volume of 10 ml/kg, and the frequency of administration was once a day for 4 weeks, and then the rats were anesthetized for cardiac ultrasound.
The rats were anesthetized by intraperitoneal injection of sodium pentobarbital 40 mg/kg, and the limbs were fixed on a wooden board in supine position, and the board was tilted to the left at 30 degrees. The chest was shaved and a II lead ECG was connected. A ULTRAMARK 9 ultrasonic diagnostic instrument from ATL, USA was used with a wide bandwidth line array probe with a frequency of 10 MHz-5 MHz. The Doppler detection frequency was 6.0 MHz, the length of the probe was 38 mm, the gain of the instrument was fixedly set as 50 dB in the experiment, and the depth of the image was adjusted to 2.5 cm. The probe was placed on the left side of the sternum at 10-30 degrees from the midline of the sternum to display the parasternal left ventricular long-axis view, and the probe was rotated clockwise by 90 degrees to display the left ventricular view. Doppler flow measurements of the mitral and aortic valves were performed in the parasternal left ventricular long-axis view and the pulmonary artery long-axis view. Ultrasound measurement indexes included left ventricular end-diastolic internal diameter (LVDd), end-systolic internal diameters (LVDs), left ventricular ejection fraction EF, left ventricular short-axis shortening rate FS, and infarct size.

[3] = TJ01-013 10, 20, 30 mg/kg, Sivelestat 5 mg/kg, FIG. 26
[4] = concentration-dependent for TJ01-013, FIG. 27

O=C(O)C[S+]([O-])c1cc(NS(=O)(=O)c2ccc(Br)cc2)c2ccccc2c1O (stereo not drawn) [I-1]
number of macrophages in alveolar lavage fluid ([1]; FIG. 25): no significant effect
number of neutrophils in alveolar lavage fluid ([1]; FIG. 25): significantly reduce
total number of cells in alveolar lavage fluid, compared with positive control Sivelestat sodium ([1]; TJ01-013 20 mg/kg, FIG. 25): decreased to a better extent
CXCL1 level in alveolar lavage fluid (ELISA) [1, 3]: significantly decreased in a concentration-dependent manner
CXCL2 level in alveolar lavage fluid (ELISA) [1, 3]: significantly decreased in a concentration-dependent manner
IL-6 level in alveolar lavage fluid (ELISA) [1, 3]: significantly decreased in a concentration-dependent manner
total number of cells in alveolar lavage fluid ([1]; after LPS, intraperitoneal TJ01-013, FIG. 25): decreased
CXCL1 transcript level in lung tissue [1, 4]: significantly decreased
CXCL2 transcript level in lung tissue [1, 4]: significantly decreased
IL-6 transcript level in lung tissue [1, 4]: significantly decreased
infarct size ([2]; FIG. 37): reduced
left ventricular end-diastolic diameter (LVDd) ([2]; FIG. 38): no significant effect
end-systolic diameter (LVDs) ([2]; FIG. 39): did not have a significant effect
left ventricular ejection fraction EF ([2]; FIG. 40): significantly increased
left ventricular short-axis fractional shortening FS ([2]; FIG. 41): significantly increased
